system: Bmi-1; experiment: Sandwich ELISA Assay (Bmi-1 ELISA) in HT-1080 cells; format: cell-based
Protocol: Cell Seeding and Compound Treatment (Day 1):
HT-1080 cells were seeded at 8000 cells/well (50 μL) in 96-well tissue culture plates. After the cells became adherent (3-4 hours), 2× diluted stocks of test compounds in 50 μL DMEM containing 1% DMSO (final DMSO concentration was 0.5%) were added and the plates were incubated at 37° C. under 5% CO2 for 40-48 hours.
ELISA Plate First Antibody Preparation (Day 2):
The First Antibody (Millipore Mouse, monoclonal to mouse Bmi-1, clone F6, catalog #05-637) diluted to 2 μg/mL in PBS was added (100 μL) to each well of a Nunc MaxiSorp 96-well ELISA plate. The plate was covered with a plate seal and allowed to stand overnight.
Cell Lysate Preparation (Day 3):
Fresh 1× Lysis buffer was prepared on the day of the assay as follows: 1 mM EDTA, 150 mM NaCl, 0.5% Triton-X 100, 10 mM NaF, 20 mM B-Glycerophosphate, 1 mM DTT (in PBS, pH 7.2-7.4) and 1× HALT protease inhibitor cocktail (Pierce #78410).
The 1× Lysis Buffer (40 μL) was added to each well and the plate was shaken for 5-10 minutes on an orbital shaker to allow cell lysis, then diluent (1% BSA in PBS in 0.5% NP40) (100 μL) was added to each well.
A standard curve was prepared at the following Bmi-1 concentrations: 8000, 4000, 2000, 1000, 500, 250, 125, 0 pg/mL The Bmi-1 Recombinant Protein Standard (Novus Biologicals PCGF4 Recombinant Protein (P01), catalog #H00000648-P01) used to prepare the standard curve was stored at −80° C. On first thaw, the Bmi-1 Recombinant Protein Standard was diluted to […] in Blocking Buffer (1% BSA in PBS; BSA: Fisher Scientific Catalog #1600-100). Aliquots were taken and refrozen at −80° C. The aliquots may be kept at 4° C. and reused after first thaw, but only within 1-2 weeks. The Bmi-1 Recombinant Protein Standard contains a GST-fusion tag that appears around 70 Kda on Western Blot.
The prepared ELISA plate was washed 3× with Wash Buffer (0.05% Tween-20 in PBS). The final wash was removed from the plate and the plate was blotted dry. Blocking Buffer (300 μL) (1% BSA in PBS) was added to each well. The plate was covered with a plate seal and incubated at room temperature for 1 hour. The blocked plate was washed 3× with Wash Buffer, then the final wash was removed and the plate was blotted dry. The previously prepared samples and standards were added (100 μL/well) and the plate was covered with a plate seal and incubated at 4° C. overnight.
The prepared ELISA plate was removed from 4° C., incubated at room temperature for 30 minutes, then washed and blotted dry as previously described for Day 3. The Second Antibody (Cell Signaling Rabbit anti-Bmi-1, Cat #2830) diluted to 1:600 in Blocking Buffer was added (100 μL) to each well, except as needed for background control wells. The plate was covered with a plate seal and incubated for 1.5 hrs at room temperature.
The ELISA plate was washed and blotted dry as previously described. The Third Antibody (Cell Signaling HRP conjugated anti-rabbit IgG (CellSignaling, Cat #:7074) diluted to 1:300 in Blocking Buffer was added (100 μL) to each well, except as needed for background control wells. The plate was incubated for 1 hr at room temperature.
The plate was washed and blotted dry as previously described, then prepared TMB substrate (TMB substrate kit, Pierce catalog #34021) (prepared by mixing kit reagents 1:1) (100 μL) was added per well. The plate was incubated for 20-30 minutes at room temperature in the dark, then Stop Solution (2 M sulfuric acid in water) (50 μL) was added per well. The plates were read at OD450 (experimental) and OD570 (reference).

Structure (SMILES)	EC50 [nM]
FC(F)(F)c1ccc(Nc2ccnc(-c3c(C(F)(F)F)nc4ccccn34)n2)cc1 [Cpd 7, 2-[2-(trifluoromethyl)imidazo[1,2-a]pyridin-3-yl]-N-[4-(trifluoromethyl)phenyl]pyrimidin-4-amine]	100 to 3000
FC(F)(F)c1nc2ccccn2c1-c1nccc(Nc2ccc(Cl)cc2)n1 [Cpd 8, N-(4-chlorophenyl)-2-[2-(trifluoromethyl)imidazo[1,2-a]pyridin-3-yl]pyrimidin-4-amine]	100 to 3000
FC(F)Oc1ccc(Nc2ccnc(-c3c(C(F)(F)F)nc4ccccn34)n2)cc1 [Cpd 11, N-[4-(difluoromethoxy)phenyl]-2-[2-(trifluoromethyl)imidazo[1,2-a]pyridin-3-yl]pyrimidin-4-amine]	100 to 3000
FC(F)(F)c1ccc(Nc2ccnc(-c3c(C(F)(F)F)nc4ccc(Cl)cn34)n2)cc1 [Cpd 13, 2-[6-chloro-2-(trifluoromethyl)imidazo[1,2-a]pyridin-3-yl]-N-[4-(trifluoromethyl)phenyl]pyrimidin-4-amine]	100 to 3000
FC(F)(F)Oc1ccc(Nc2ccnc(-c3c(C(F)(F)F)nc4ccc(Cl)cn34)n2)cc1 [Cpd 14, 2-[6-chloro-2-(trifluoromethyl)imidazo[1,2-a]pyridin-3-yl]-N-[4-(trifluoromethoxy)phenyl]pyrimidin-4-amine]	100 to 3000
FC(F)(F)c1nc2ccc(Cl)cn2c1-c1nccc(Nc2ccc(Cl)cc2)n1 [Cpd 17, N-(4-chlorophenyl)-2-[6-chloro-2-(trifluoromethyl)imidazo[1,2-a]pyridin-3-yl]pyrimidin-4-amine]	100 to 3000
Cc1nc2ccc(C(F)(F)F)cn2c1-c1nccc(Nc2ccc(C(F)(F)F)cc2)n1 [Cpd 18, 2-[2-methyl-6-(trifluoromethyl)imidazo[1,2-a]pyridin-3-yl]-N-[4-(trifluoromethyl)phenyl]pyrimidin-4-amine]	100 to 3000
Cc1nc2ccc(C(F)(F)F)cn2c1-c1nccc(Nc2ccc(Br)cc2)n1 [Cpd 19, N-(4-bromophenyl)-2-[2-methyl-6-(trifluoromethyl)imidazo[1,2-a]pyridin-3-yl]pyrimidin-4-amine]	100 to 3000
Cc1ccc(Nc2ccnc(-c3c(C)nc4ccc(C(F)(F)F)cn34)n2)cc1 [Cpd 20, N-(4-methylphenyl)-2-[2-methyl-6-(trifluoromethyl)imidazo[1,2-a]pyridin-3-yl]pyrimidin-4-amine]	100 to 3000
COc1ccc(Nc2ccnc(-c3c(C(F)(F)F)n(C)c4ccc(Cl)cc34)n2)cc1 [Cpd 23, 2-[5-chloro-1-methyl-2-(trifluoromethyl)-1H-indol-3-yl]-N-(4-methoxyphenyl)pyrimidin-4-amine]	100 to 3000
Cn1c(C(F)(F)F)c(-c2nccc(Nc3ccc(OC(F)F)cc3)n2)c2cc(Cl)ccc21 [Cpd 24, 2-[5-chloro-1-methyl-2-(trifluoromethyl)-1H-indol-3-yl]-N-[4-(difluoromethoxy)phenyl]pyrimidin-4-amine]	100 to 3000
Cn1c(C(F)(F)F)c(-c2nccc(Nc3ccc(Br)cc3)n2)c2cc(Cl)ccc21 [Cpd 25, N-(4-bromophenyl)-2-[5-chloro-1-methyl-2-(trifluoromethyl)-1H-indol-3-yl]pyrimidin-4-amine]	100 to 3000
Fc1ccc2nc(-c3ccccc3)c(-c3nccc(Nc4ccc(Br)cc4)n3)n2c1 [Cpd 26, N-(4-bromophenyl)-2-(6-fluoro-2-phenylimidazo[1,2-a]pyridin-3-yl)pyrimidin-4-amine]	100 to 3000
Cc1ccc(Nc2ccnc(-c3c(-c4ccccc4)nc4ccc(F)cn34)n2)cc1 [Cpd 27, 2-(6-fluoro-2-phenylimidazo[1,2-a]pyridin-3-yl)-N-(4-methylphenyl)pyrimidin-4-amine]	100 to 3000
FC(F)(F)c1nc2ccccn2c1-c1nccc(Nc2ccc3c(c2)OCO3)n1 [Cpd 28, N-(1,3-benzodioxol-5-yl)-2-[2-(trifluoromethyl)imidazo[1,2-a]pyridin-3-yl]pyrimidin-4-amine]	100 to 3000
COc1ccc(Nc2ccnc(-c3c(C(F)(F)F)nc4ccccn34)n2)cn1 [Cpd 30, N-(6-methoxypyridin-3-yl)-2-[2-(trifluoromethyl)imidazo[1,2-a]pyridin-3-yl]pyrimidin-4-amine]	100 to 3000

Now from value to compound:

EC50 [nM]	Structure (SMILES)
10 to 100	COc1ccc(Nc2ccnc(-n3c(C)nc4ccccc43)n2)cc1 [Cpd 1, N-(4-methoxyphenyl)-2-(2-methyl-1H-benzimidazol-1-yl)pyrimidin-4-amine]
100 to 3000	Cc1nc2ccccn2c1-c1nccc(Nc2ccc3c(c2)OCCO3)n1 [Cpd 2, N-(2,3-dihydro-1,4-benzodioxin-6-yl)-2-(2-methylimidazo[1,2-a]pyridin-3-yl)pyrimidin-4-amine]
10 to 100	Cc1nc2ccccn2c1-c1nccc(Nc2ccc(C(F)(F)F)cc2)n1 [Cpd 3, 2-(2-methylimidazo[1,2-a]pyridin-3-yl)-N-[4-(trifluoromethyl)phenyl]pyrimidin-4-amine]
10 to 100	COc1ccc(Nc2ccnc(-c3c(C)nc4ccccn34)n2)cc1 [Cpd 4, N-(4-methoxyphenyl)-2-(2-methylimidazo[1,2-a]pyridin-3-yl)pyrimidin-4-amine]
100 to 3000	Cc1nc2ccccn2c1-c1nccc(Nc2ccc(Cl)cc2)n1 [Cpd 5, N-(4-chlorophenyl)-2-(2-methylimidazo[1,2-a]pyridin-3-yl)pyrimidin-4-amine]
10 to 100	Cc1nc2ccccn2c1-c1nccc(Nc2ccccc2)n1 [Cpd 6, 2-(2-methylimidazo[1,2-a]pyridin-3-yl)-N-phenylpyrimidin-4-amine]
1 to 10	Cc1ccc(Nc2ccnc(-c3c(C(F)(F)F)nc4ccccn34)n2)cc1 [Cpd 9, N-(4-methylphenyl)-2-[2-(trifluoromethyl)imidazo[1,2-a]pyridin-3-yl]pyrimidin-4-amine]
10 to 100	FC(F)(F)c1nc2ccccn2c1-c1nccc(Nc2ccc(Br)cc2)n1 [Cpd 10, N-(4-bromophenyl)-2-[2-(trifluoromethyl)imidazo[1,2-a]pyridin-3-yl]pyrimidin-4-amine]
10 to 100	COc1ccc(Nc2ccnc(-c3c(C(F)(F)F)nc4ccccn34)n2)cc1 [Cpd 12, N-(4-methoxyphenyl)-2-[2-(trifluoromethyl)imidazo[1,2-a]pyridin-3-yl]pyrimidin-4-amine]
10 to 100	FC(F)(F)c1nc2ccc(Cl)cn2c1-c1nccc(Nc2ccc(Br)cc2)n1 [Cpd 15, N-(4-bromophenyl)-2-[6-chloro-2-(trifluoromethyl)imidazo[1,2-a]pyridin-3-yl]pyrimidin-4-amine]
10 to 100	FC(F)Oc1ccc(Nc2ccnc(-c3c(C(F)(F)F)nc4ccc(Cl)cn34)n2)cc1 [Cpd 16, 2-[6-chloro-2-(trifluoromethyl)imidazo[1,2-a]pyridin-3-yl]-N-[4-(difluoromethoxy)phenyl]pyrimidin-4-amine]
1 to 10	Cc1ccc(Nc2ccnc(-c3c(C(F)(F)F)nc4ccc(F)cn34)n2)cc1 [Cpd 21, 2-[6-fluoro-2-(trifluoromethyl)imidazo[1,2-a]pyridin-3-yl]-N-(4-methylphenyl)pyrimidin-4-amine]
10 to 100	COc1ccc(Nc2ccnc(-c3c(C(F)(F)F)nc4ccc(F)cn34)n2)cc1 [Cpd 22, 2-[6-fluoro-2-(trifluoromethyl)imidazo[1,2-a]pyridin-3-yl]-N-(4-methoxyphenyl)pyrimidin-4-amine]
10 to 100	FC(F)(F)c1nc2ccccn2c1-c1nccc(Nc2ccc3c(c2)OCCO3)n1 [Cpd 29, N-(2,3-dihydro-1,4-benzodioxin-6-yl)-2-[2-(trifluoromethyl)imidazo[1,2-a]pyridin-3-yl]pyrimidin-4-amine]
